Source: patent US10160972B2, “Methods and materials for treating cancer” (Mayo Foundation for Medical Education and Research, priority 2012, dated 2018)

What was measured:
[1] = test system: A498 ccRCC cell line; settings: read-out: IC50, decrease in proliferation; A498, day 5
Protocol: (§1) ccRCC cell lines: RWV366T and KIJ265T (16) (both stage IV ccRCC patient tissue derived), A498, Caki1, Caki2, and ACHN (ATCC) and K347N, K355N, K359N, K360N, K365N, and K366N normal renal tissue derived mortal cells (NRE) were cultured in DMEM medium (Cellgro) containing 5% FBS (Hyclone) and 1× penicillin-streptomycin (Invitrogen) at 37° C. in humidified conditions with 5% CO2.
(§2) Cells were plated (0.5 or 1×10^5/well) in 24-well plates for proliferation or treatment assays, in triplicate. Cells were trypsinized (0.25%) and counted using a Coulter Particle Counter at specified time intervals. For SCD1 rescue assays, oleic acid-albumin was added to media at 5 μM. Drug stocks were prepared in DMSO. […] Temsirolimus dosing was performed as described in the text. Soft agar cultures were prepared by diluting 2× growth medium 1:1 in 1.5% Seaplaque®GTG® agarose, with 500 cells/plate in 60 mm culture dishes. Colonies were stained with Giemsa (LabChem Inc.) and counted after 3 wks. Cell images were obtained with an OlympusIX71 microscope at 20× magnification.

[2] = test system: ACHN ccRCC cell line; settings: read-out: IC50, decrease in proliferation, day 5
Protocol: as §1, §2

[3] = test system: Caki1 ccRCC cell line; settings: read-out: IC50, decrease in proliferation; Caki1, day 5
Protocol: as §1, §2

[4] = test system: Caki2 ccRCC cell line; settings: read-out: IC50, decrease in proliferation; Caki2, day 5
Protocol: as §1, §2

[5] = test system: Caki1, A498, Caki2, and ACHN ccRCC cell lines; assay: PARP cleavage western blot (apoptosis); type: cell-based, human
Protocol: (§3) Protein extracts, electrophoresis, and membrane transfers were prepared as previously described (Copland J A, Marlow L A, Kurakata S, Fujiwara K, Wong A K, Kreinest P A, et al. Novel highaffinity PPARgamma agonist alone and in combination with paclitaxel inhibits human anaplastic thyroid carcinoma tumor growth via p21WAF1/CIP1. Oncogene. 2006; 25:2304-17). Primary antibodies included SCD1, PARP, DDIT3, BiP, sXBP1, and β-actin. A Supersignal chemiluminescent kit was used to perform detection.

[6] = test system: Caki1, A498, Caki2, and ACHN ccRCC cells; assay: Gene array expression analysis; type: cell-based, human; settings: 75 nM, 24 hours, vs DMSO control
Protocol: Gene array expression analysis was performed using Affymetrix Human Genome U133 Plus 2.0 Array chip. The details of the data processing and methodology were previously described in (Tun H W, Marlow L A, von Roemeling C A, Cooper S J, Kreinest P, Wu K, et al. Pathway signature and cellular differentiation in clear cell renal cell carcinoma. PLoS One. 2010; 5:e10696). Gene expression data was deposited at Gene Expression Omnibus (Accession#GSE41485). Pathway analysis was performed using IPA (Ingenuity® Systems).

[7] = test system: Caki1 and A498 cells; assay: Western blot of ER stress markers; type: cell-based, human; settings: 75 nM drug or shSCD780 knockdown, 48 hours
Protocol: as §3

[8] = test system: A375 melanoma cells; assay: Cell number growth inhibition assay; type: cell-based, human
Protocol: (§4) A number of cancer cell lines were tested to determine whether SCD1 protein expression correlates with growth inhibition of an SCD1 inhibitor in human cancer cell lines.
(§5) Cells (20,000/ml) were plated in 12 well cell culture plates, allowed to attach and treated with the indicated dose of SCD1 inhibitor ([…]) or standard of care (gemcitabine). Cell number was counted using a Coulter Counter. As show in FIG. 7, the data are expressed as percent of DMSO control. Each value represents triplicates. Western analysis for SCD1 protein expression was performed on each cell line with beta-actin as the loading control.
(§6) The following cell lines were studied using a similar method as that described above.

[9] = test system: A549 nonsmall cell lung cancer cells; assay: Cell number growth inhibition assay; type: cell-based, human
Protocol: as §4, §5, §6

[10] = test system: BCJ4T bladder cancer cells; assay: Cell number growth inhibition assay; type: cell-based, human
Protocol: as §4, §5, §6

[11] = test system: Caco2 colon cancer cells; assay: Cell number growth inhibition assay; type: cell-based, human
Protocol: as §4, §5, §6

[12] = test system: Calu-1 lung cancer cells; assay: Cell number growth inhibition assay; type: cell-based, human
Protocol: as §4, §5, §6

[13] = test system: DU-145 prostate cancer cells; assay: Cell number growth inhibition assay; type: cell-based, human
Protocol: as §4, §5, §6

[14] = test system: HOV TAX2 ovarian cancer cells; assay: Cell number growth inhibition assay; type: cell-based, human
Protocol: as §4, §5, §6

[15] = test system: HT1376 bladder cancer cells; assay: Cell number growth inhibition assay; type: cell-based, human
Protocol: as §4, §5, §6

[16] = test system: HT29 colon cancer cells; assay: Cell number growth inhibition assay; type: cell-based, human
Protocol: as §4, §5, §6

[17] = test system: KTC3 thyroid cancer cells; assay: Cell number growth inhibition assay; type: cell-based, human
Protocol: as §4, §5, §6

[18] = test system: LNCAP prostate cancer cells; assay: Cell number growth inhibition assay; type: cell-based, human
Protocol: as §4, §5, §6

[19] = test system: MCF-7 (ER+/PR+) breast cancer cells; assay: Cell number growth inhibition assay; type: cell-based, human
Protocol: as §4, §5, §6

[20] = test system: MDA-231 (triple negative) breast cancer cells; assay: Cell number growth inhibition assay; type: cell-based, human
Protocol: as §4, §5, §6

[21] = test system: Mela 11 melanoma cells; assay: Cell number growth inhibition assay; type: cell-based, human
Protocol: as §4, §5, §6

[22] = test system: OVCA420 ovarian cancer cells; assay: Cell number growth inhibition assay; type: cell-based, human
Protocol: as §4, §5, §6

[23] = test system: SNU449 liver cancer cells; assay: Cell number growth inhibition assay; type: cell-based, human; settings: SNU449
Protocol: as §4, §5, §6

[24] = test system: T24 bladder cancer cells; assay: Cell number growth inhibition assay; type: cell-based, human
Protocol: as §4, §5, §6

[25] = test system: T47D (PR+) breast cancer cells; assay: Cell number growth inhibition assay; type: cell-based, human
Protocol: as §4, §5, §6

[26] = test system: ATF6 luciferase reporter in Caki1 cells
Protocol: For transient transfection, Caki1 and A498 cells were transfected using Lipofectamine 2000. Cells treated with DMSO vs. A939572 or infected using shSCD780 lentiviral constructs vs. NT control were harvested after 48 hrs using Promega's Dual Luciferase assay kit per the manufacturer's protocol and luciferase activity was measured using a Veritas Luminometer; reported as relative luminescence.
Caki1 and A498 cells transfected with an ATF6 luciferase reporter (p5xATF6-GL3) were treated with a 75 nM dose of A939572 or were infected with shSCD780. Resulting luminescence was measured after 48 hours.

[27] = read-out: estimated IC50 concentration, growth inhibition

With `CNC(=O)c1cccc(NC(=O)N2CCC(Oc3ccccc3Cl)CC2)c1` [A939572] the IC50 [1] was 50 nM, the IC50 [2] was 6 nM and the IC50 [3] was 65 nM. The IC50 [4] was 65 nM, the “apoptosis by PARP cleavage with addition of OA-BSA” value ([5]; A939572 + OA-BSA) was “blocked apoptosis” and the “apoptosis by PARP cleavage” value ([5]; western blot, all four cell lines) was “induced apoptosis”. The “expression of ER stress response genes associated with UPR” value [6] was “increased expression of ER stress response genes”, the “protein expression of ER stress markers BiP, CHOP, spliced-XBP1” value [7] was “amplified expression” and the growth inhibition [8] was “growth inhibited in a dose dependent fashion”. For the same compound, the IC50 [8, 27] was about 50 nM, the growth inhibition [9] was “growth inhibited in a dose dependent fashion” and the growth inhibition [10] was “not growth inhibited”. For the same compound, the growth inhibition [11] was “growth inhibited in a dose dependent fashion”, the growth inhibition [12] was “not growth inhibited” and the growth inhibition [13] was “growth inhibited in a dose dependent fashion”. For the same compound, the growth inhibition [14] was “growth inhibited in a dose dependent fashion”, the growth inhibition [15] was “growth inhibited in a dose dependent fashion” and the growth inhibition [16] was “growth inhibited in a dose dependent fashion”. The growth inhibition [17] was “growth inhibited in a dose dependent fashion”, the growth inhibition [18] was “growth inhibited in a dose dependent fashion” and the growth inhibition [19] was “growth inhibited in a dose dependent fashion”. For the same compound, the growth inhibition [20] was “growth inhibited in a dose dependent fashion”, the growth inhibition [21] was “not growth inhibited” and the growth inhibition [22] was “growth inhibited in a dose dependent fashion”. For the same compound, the growth inhibition [23] was “growth inhibited in a dose dependent fashion”, the IC50 [23, 27] was about 100 nM and the growth inhibition [24] was “growth inhibited in a dose dependent fashion”. For the same compound, the growth inhibition [25] was “growth inhibited in a dose dependent fashion”, the “reporter activation with addition of OA-BSA” value ([26]; Caki1, + OA-BSA) was “significantly reduced reporter activation” and the “luciferase activity, fold change induction” value ([26]; Caki1, +BSA, 75 nM A939572 or shSCD780, 48 hours, vs DMSO and NT controls) was 1.6 fold change.
